Experimental data as given in US11464770B2, “Anticancer pharmaceutical composition” (NATIONAL CANCER CENTER, priority 2016, dated 2022).
Read-outs that look alike come from different tables or passages of the source.

Test system: breast cancer cell lines (e.g. MDA-MB-231, SK-BR-3, MDA-MB-468, HCC1954)
Experiment: Cell based assay, cell viability (CellTiter-Glo), breast cancer cell lines
Outline: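 Trypsin-EDTA-detached lines seeded; 24 h later compound added (final 0–2 μM); 72 h exposure; ATP luminescence viability readout.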

[1] = Breast cancer cell line MDA-MB-231-L/DOX, 72 hours, CellTiter-Glo, read-out: IC50, MDA-MB-231-L/DOX
[2] = Homo sapiens, Breast cancer cell line BT-20, 72 hours, CellTiter-Glo, read-out: IC50, BT-20
[3] = Homo sapiens, Breast cancer cell line HCC1395, 72 hours, CellTiter-Glo, read-out: IC50, HCC1395
[4] = Homo sapiens, Breast cancer cell line HCC1954, 72 hours, CellTiter-Glo, read-out: IC50, HCC1954
[5] = Homo sapiens, Breast cancer cell line JIMT-1, 72 hours, CellTiter-Glo, read-out: IC50, JIMT-1
[6] = Homo sapiens, Breast cancer cell line MCF7, 72 hours, CellTiter-Glo, read-out: IC50, MCF7
[7] = Homo sapiens, Breast cancer cell line MDA-MB-231, 72 hours, CellTiter-Glo, read-out: IC50, MDA-MB-231
[8] = Homo sapiens, Breast cancer cell line MDA-MB-468, 72 hours, CellTiter-Glo, read-out: IC50, MDA-MB-468
[9] = Homo sapiens, Breast cancer cell line SK-BR-3, 72 hours, CellTiter-Glo, read-out: IC50, SK-BR-3

| Structure (SMILES) | IC50 [1] [nM] | IC50 [2] [nM] | IC50 [3] [nM] | IC50 [4] [nM] | IC50 [5] [nM] | IC50 [6] [nM] | IC50 [7] [nM] | IC50 [8] [nM] | IC50 [9] [nM] | IC50 (Homo sapiens, BT-20 cells, 72 hours treatment, CellTiter-Glo cell viability, read-out: IC50, Breast cancer cell line BT-20) [nM] | IC50 (Homo sapiens, HCC1395 cells, 72 hours treatment, CellTiter-Glo cell viability, read-out: IC50, Breast cancer cell line HCC1395) [nM] | IC50 (Homo sapiens, HCC1954 cells, 72 hours treatment, CellTiter-Glo cell viability, read-out: IC50, Breast cancer cell line HCC1954) [nM] | IC50 (Homo sapiens, JIMT-1 cells, 72 hours treatment, CellTiter-Glo cell viability, read-out: IC50, Breast cancer cell line JIMT-1) [nM] | IC50 (Homo sapiens, MCF7 cells, 72 hours treatment, CellTiter-Glo cell viability, read-out: IC50, Breast cancer cell line MCF7) [nM] | IC50 (Homo sapiens, MDA-MB-231 cells, 72 hours treatment, CellTiter-Glo cell viability, read-out: IC50, Breast cancer cell line MDA-MB-231) [nM] | IC50 (Homo sapiens, MDA-MB-468 cells, 72 hours treatment, CellTiter-Glo cell viability, read-out: IC50, Breast cancer cell line MDA-MB-468) [nM] | IC50 (Homo sapiens, SK-BR-3 cells, 72 hours treatment, CellTiter-Glo cell viability, read-out: IC50, Breast cancer cell line SK-BR-3) [nM] | IC50 (MDA-MB-231-L/DOX cells, 72 hours treatment, CellTiter-Glo cell viability, read-out: IC50, Breast cancer cell line MDA-MB-231-L/DOX) [nM] |
| --- | --- | --- | --- | --- | --- | --- | --- | --- | --- | --- | --- | --- | --- | --- | --- | --- | --- | --- |
| CC(=O)c1c([S+]([O-])Cc2ccc(C(C)(C)C)cc2)[nH]c2c(Br)ccc(Cl)c2c1=O (stereo not drawn) [Compound 60, 3-acetyl-8-bromo-2-((4-(tert-butyl)benzyl)sulfinyl)-5-chloroquinolin-4(1H)-one] | > 2000 | > 2000 | > 10000 | > 2000 | > 10000 | > 2000 | > 2000 | > 2000 | 1880 |  |  |  |  |  |  |  |  |  |
| CC(=O)c1c([S+]([O-])Cc2ccc([S+]([O-])C(F)(F)F)cc2)[nH]c2c(Br)ccc(Cl)c2c1=O (stereo not drawn) [Compound 64, 3-acetyl-8-bromo-5-chloro-2-((4-((trifluoromethyl)sulfinyl)benzyl)sulfinyl)quinolin-4(1H)-one] | > 2000 | > 2000 | > 10000 | > 2000 | > 10000 | > 2000 | > 2000 | > 2000 | 1030 |  |  |  |  |  |  |  |  |  |
| CC(=O)c1c([S+]([O-])Cc2ccc(C(F)(F)F)cc2)[nH]c2c(Br)ccc(Cl)c2c1=O (stereo not drawn) [Compound 70, 3-acetyl-8-bromo-5-chloro-2-((4-(trifluoromethyl)benzyl)sulfinyl)quinolin-4(1H)-one] | > 2000 | > 2000 | > 10000 | > 2000 | > 10000 | > 2000 | > 2000 | > 2000 | 1210 |  |  |  |  |  |  |  |  |  |
| CC(=O)c1c([S+]([O-])Cc2ccc(OC(F)(F)F)cc2)[nH]c2c(Br)ccc(Cl)c2c1=O (stereo not drawn) [Compound 71, 3-acetyl-8-bromo-5-chloro-2-((4-(trifluoromethoxy)benzyl)sulfinyl)quinolin-4(1H)-one] | > 2000 | > 2000 | > 10000 | > 2000 | > 10000 | > 2000 | > 2000 | > 2000 | 1550 |  |  |  |  |  |  |  |  |  |
| CC(=O)c1c([S+]([O-])Cc2ccc(C(F)(F)F)o2)[nH]c2c(Br)ccc(Cl)c2c1=O (stereo not drawn) [Compound 72, 3-acetyl-8-bromo-5-chloro-2-(((5-(trifluoromethyl)furan-2-yl)methyl)sulfinyl)quinolin-4(1H)-one] | > 2000 | > 2000 | > 2000 | > 2000 | > 2000 | > 2000 | 1380 | > 2000 | 850 |  |  |  |  |  |  |  |  |  |
| COc1cc(S(F)(F)(F)(F)F)ccc1C[S+]([O-])c1[nH]c2c(Br)ccc(Cl)c2c(=O)c1C(C)=O (stereo not drawn) [Compound 75, 3-acetyl-8-bromo-5-chloro-2-((2-methoxy-4-(pentafluoro--sulfanyl)benzyl)sulfinyl)quinolin-4(1H)-one] | > 2000 | > 2000 | > 2000 | > 2000 | > 2000 | > 2000 | 1160 | > 2000 | 1700 |  |  |  |  |  |  |  |  |  |
| CC(=O)c1c([S+]([O-])Cc2cc(F)cc(S(F)(F)(F)(F)F)c2)[nH]c2c(Br)ccc(Cl)c2c1=O (stereo not drawn) [Compound 76, 3-acetyl-8-bromo-5-chloro-2-((3-fluoro-5-(pentafluoro--sulfanyl)benzyl)sulfinyl)quinolin-4(1H)-one] | > 2000 | > 2000 | > 10000 | > 2000 | > 10000 | > 2000 | > 2000 | > 2000 | 1720 |  |  |  |  |  |  |  |  |  |

More lines, now with the values ahead:

| IC50 [1] [nM] | IC50 [2] [nM] | IC50 [3] [nM] | IC50 [4] [nM] | IC50 [5] [nM] | IC50 [6] [nM] | IC50 [7] [nM] | IC50 [8] [nM] | IC50 [9] [nM] | IC50 (Homo sapiens, BT-20 cells, 72 hours treatment, CellTiter-Glo cell viability, read-out: IC50, Breast cancer cell line BT-20) [nM] | IC50 (Homo sapiens, HCC1395 cells, 72 hours treatment, CellTiter-Glo cell viability, read-out: IC50, Breast cancer cell line HCC1395) [nM] | IC50 (Homo sapiens, HCC1954 cells, 72 hours treatment, CellTiter-Glo cell viability, read-out: IC50, Breast cancer cell line HCC1954) [nM] | IC50 (Homo sapiens, JIMT-1 cells, 72 hours treatment, CellTiter-Glo cell viability, read-out: IC50, Breast cancer cell line JIMT-1) [nM] | IC50 (Homo sapiens, MCF7 cells, 72 hours treatment, CellTiter-Glo cell viability, read-out: IC50, Breast cancer cell line MCF7) [nM] | IC50 (Homo sapiens, MDA-MB-231 cells, 72 hours treatment, CellTiter-Glo cell viability, read-out: IC50, Breast cancer cell line MDA-MB-231) [nM] | IC50 (Homo sapiens, MDA-MB-468 cells, 72 hours treatment, CellTiter-Glo cell viability, read-out: IC50, Breast cancer cell line MDA-MB-468) [nM] | IC50 (Homo sapiens, SK-BR-3 cells, 72 hours treatment, CellTiter-Glo cell viability, read-out: IC50, Breast cancer cell line SK-BR-3) [nM] | IC50 (MDA-MB-231-L/DOX cells, 72 hours treatment, CellTiter-Glo cell viability, read-out: IC50, Breast cancer cell line MDA-MB-231-L/DOX) [nM] | Structure (SMILES) |
| --- | --- | --- | --- | --- | --- | --- | --- | --- | --- | --- | --- | --- | --- | --- | --- | --- | --- | --- |
| > 2000 | > 2000 | > 10000 | > 2000 | > 10000 | > 2000 | > 2000 | > 2000 | 1200 |  |  |  |  |  |  |  |  |  | CC(=O)c1c([S+]([O-])Cc2ccc(C#N)cc2)[nH]c2c(Br)ccc(Cl)c2c1=O (stereo not drawn) [Compound 73, 4-(((3-acetyl-8-bromo-5-chloro-4-oxo-1,4-dihydroquinolin-2-yl)sulfinyl)methyl)benzonitrile] |
| > 2000 | > 2000 | > 10000 | > 2000 | > 10000 | > 2000 | > 2000 | > 2000 | 1060 |  |  |  |  |  |  |  |  |  | CC(=O)c1c([S+]([O-])Cc2c(F)cccc2Cl)[nH]c2c(Br)ccc(Cl)c2c1=O (stereo not drawn) [Compound 74, 3-acetyl-8-bromo-5-chloro-2-((2-chloro-6-fluorobenzyl)sulfinyl)quinolin-4(1H)-one] |
| > 2000 | > 2000 | > 10000 | > 2000 | > 10000 | > 2000 | > 2000 | > 2000 | 1200 |  |  |  |  |  |  |  |  |  | CC(=O)c1c([S+]([O-])Cc2c(F)c(F)c(F)c(F)c2F)[nH]c2c(Br)ccc(Cl)c2c1=O (stereo not drawn) [Compound 78, 3-acetyl-8-bromo-5-chloro-2-(((perfluorophenyl)methyl)sulfinyl)quinolin-4(1H)-one] |
|  |  |  |  |  |  |  |  |  | > 2000 | > 10000 | 1450 | > 10000 | > 2000 | 1950 | 1760 | 1210 | > 2000 | CC(=O)c1c([S+]([O-])Cc2ccc(I)cc2)[nH]c2c(Cl)ccc(Cl)c2c1=O (stereo not drawn) [Compound 83, 3-acetyl-5,8-dichloro-2-((4-iodobenzyl)sulfinyl)quinolin-4(1H)-one] |
